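In this assay, cells in 96-well plates receive the compound at five concentrations for 48 hours. Endpoints are linearly interpolated between the surrounding concentrations. GI50 = concentration required for 50% inhibition of growth.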 Calls of active or inactive are those of the source. Cut-off read from the data, not from the text of the source: active = GI50 up to about 1.1 µM and inactive = higher.
Assays:
Experiment in all cases: DTP human tumour cell line panel, 48 h
[1] = system: MDA-N
[2] = system: HOP-62
[3] = system: IGROV-1
[4] = system: CCRF-CEM
[5] = system: SNB-19
[6] = system: UACC-62
[7] = system: SK-MEL-5
[8] = system: TK-10
[9] = system: HT-29
[10] = system: A498
[11] = system: OVCAR-8
[12] = system: OVCAR-3
[13] = system: A549
[14] = system: HCT-116
[15] = system: U-251
[16] = system: COLO 205
[17] = system: SK-MEL-28
[18] = system: NCI/ADR-RES
[19] = system: 786-0
[20] = system: SF-539

Measured: GI50

COc1ccc2oc(=O)c3c(c2c1C)OC(C)(C)C=C3
inactive: [1] > 100 µM | [2] > 100 µM | [3] > 100 µM | [4] > 100 µM | [5] > 100 µM | [6] > 100 µM | [7] > 100 µM | [8] > 100 µM | [9] > 100 µM | [10] > 100 µM | [11] > 100 µM | [12] > 100 µM | [13] > 100 µM | [14] > 100 µM | [15] > 100 µM | [16] > 100 µM | [17] > 100 µM | [18] > 100 µM | [19] > 100 µM | [20] > 100 µM

CCOc1cc2c(=O)oc3c(OC)ccc4ccc(c1OC)c2c43
inactive: [1] > 100 µM | [2] 46.5 µM | [3] > 100 µM | [4] > 100 µM | [5] 59.2 µM | [6] > 100 µM | [7] > 100 µM | [8] > 100 µM | [9] 97.5 µM | [10] > 100 µM | [11] 25.2 µM | [12] > 100 µM | [13] 28.5 µM | [14] 6.64 µM | [15] 34.5 µM | [16] > 100 µM | [17] > 100 µM | [18] 36.2 µM | [19] 36.5 µM | [20] > 100 µM

CC1CC[C@@]2(OC1)OC1C[C@H]3[C@@H]4CC[C@H]5CC(OC6OC(CO)C(OC7OC(CO)C(O)C(O)C7O)C(O)C6O)CCC5(C)[C@H]4CCC3(C)C1[C@@H]2C (stereo not given in full)
inactive: [1] 8.2 µM | [2] 6.03 µM | [3] 2.52 µM | [4] 9.16 µM | [5] 9.04 µM | [6] 10.1 µM | [7] 8.69 µM | [8] 9.64 µM | [9] 7.35 µM | [10] 8.65 µM | [11] 8.45 µM | [12] 6.1 µM | [13] 9.35 µM | [14] 7.53 µM | [15] 8.99 µM | [16] 6.89 µM | [17] 9.2 µM | [18] 9.64 µM | [19] 8.26 µM | [20] 8.38 µM
